In ChEMBL document CHEMBL1201862, “PubChem BioAssay data set” (2004):
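1) Cells in 96-well plates. 2) Compound, 48 h, 5 concentrations. 3) Linear interpolation between surrounding doses. 4) Unreached endpoint = highest concentration. GI50 marks 50% less growth.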 Calls of active or inactive are those of the source. No stated cut-off is given here; in the data, active = GI50 up to about 1.1 µM and inactive = higher.

Key:
Assay in all cases: NCI anticancer screen, dose series, 48 h
[1] = tested on: KM12
[2] = tested on: HL-60
[3] = tested on: MDA-N
[4] = tested on: M14
[5] = tested on: ACHN
[6] = tested on: PC-3
[7] = tested on: SK-MEL-28
[8] = tested on: SK-OV-3
[9] = tested on: UO-31
[10] = tested on: SW-620
[11] = tested on: K562
[12] = tested on: EKVX
[13] = tested on: MDA-MB-435
[14] = tested on: HOP-62
[15] = tested on: IGROV-1
[16] = tested on: OVCAR-5
[17] = tested on: COLO 205
[18] = tested on: RPMI-8226
[19] = tested on: HCT-15
[20] = tested on: NCI/ADR-RES
[21] = tested on: SR
[22] = tested on: SNB-75
[23] = tested on: TK-10
[24] = tested on: HCC 2998
[25] = tested on: U-251
[26] = tested on: MDA-MB-231
[27] = tested on: SF-539
[28] = tested on: SK-MEL-5
[29] = tested on: SN12C
[30] = tested on: OVCAR-8
[31] = tested on: MOLT-4
[32] = tested on: MCF7
[33] = tested on: SF-295
[34] = tested on: SNB-19
[35] = tested on: UACC-257
[36] = tested on: NCI-H522
[37] = tested on: HCT-116
[38] = tested on: SF-268
[39] = tested on: 786-0
[40] = tested on: T47D
[41] = tested on: A498
[42] = tested on: LOX IMVI
[43] = tested on: UACC-62
[44] = tested on: NCI-H460
[45] = tested on: A549
[46] = tested on: OVCAR-3
[47] = tested on: CCRF-CEM
[48] = tested on: HT-29
[49] = tested on: Malme-3M
[50] = tested on: CAKI-1
[51] = tested on: DU-145

Measured: GI50

COc1ccc2c3c([nH]c2c1)-c1nc2ccccc2c(=O)n1CC3
> 25 µM: [19]
inactive: [1] > 25 µM | [2] > 25 µM | [3] > 25 µM | [4] > 25 µM | [5] > 25 µM | [6] > 25 µM | [7] > 25 µM | [8] > 25 µM | [9] > 25 µM | [10] > 25 µM | [11] > 25 µM | [12] > 25 µM | [13] > 25 µM | [14] > 25 µM | [15] > 25 µM | [16] > 25 µM | [17] > 25 µM | [18] > 25 µM | [20] > 25 µM | [21] > 25 µM | [22] 13.1 µM | [23] > 25 µM | [24] > 25 µM | [25] > 25 µM | [26] > 25 µM | [27] 14.9 µM | [28] > 25 µM | [29] > 25 µM | [30] > 25 µM | [31] > 25 µM | [32] > 25 µM | [33] > 25 µM | [34] > 25 µM | [35] > 25 µM | [36] > 25 µM | [37] > 25 µM | [38] 21.5 µM | [40] > 25 µM
active: [39] 0.317 µM

COc1ccc(-c2oc3ccccc3c(=O)c2O)cc1OC [3-HYDROXY-3',4'-DIMETHOXYFLAVONE]
> 100 µM: [19]
inactive: [3] > 100 µM | [41] 6.92 µM | [4] > 100 µM | [5] 10.6 µM | [42] 9.95 µM | [6] > 100 µM | [43] 5.22 µM | [44] 4.69 µM | [7] 25.3 µM | [8] 4.81 µM | [9] > 100 µM | [10] > 100 µM | [45] > 100 µM | [11] > 100 µM | [12] > 100 µM | [46] 47.5 µM | [47] 3.81 µM | [48] > 100 µM | [13] > 100 µM | [14] 11.2 µM | [15] 14.3 µM | [16] > 100 µM | [17] > 100 µM | [49] > 100 µM | [20] 3.77 µM | [50] 55.2 µM | [23] 12.3 µM | [25] 4.92 µM | [26] > 100 µM | [28] > 100 µM | [32] > 100 µM | [33] 17.4 µM | [34] 29 µM | [35] > 100 µM | [36] 4.63 µM | [37] > 100 µM | [38] 7.5 µM | [51] 7.16 µM | [40] 99.5 µM
